From patent US8883801B2, “Substituted pyrazolo[1,5-a]pyrimidines as mTOR inhibitors” (Merck Sharp & Dohme Corp., priority 2010, dated 2014)
pIC50: −log10 of the molar value.

Assays:
human mTOR enzyme = human mTOR enzyme (Homo sapiens, UniProt P42345); assay: HTRF mTOR enzyme (kinase) assay; assay type: biochemical; details: rated class; 5 μM ATP, 0.2 μM GST-S6K; read-out: hMTOR IC50
[1] = system: mTORC1 activity: phosphorylated 4E-BP1 Thr37/46 (p4E-BP1 Thr37/46) in PC3 cells; assay: mTOR target engagement assay, immunofluorescent cell-based, mTORC1 readout; details: Homo sapiens, PC-3, 1.5 h, rated class, 90 min treatment, read-out: P4EBP1 IC50
Procedure: The target engagement of mTOR kinase inhibitors was evaluated using an immunofluorescent cell-based assay. In this assay, inhibition of mTORC1 activity was measured by the reduction in the level of phosphorylated 4E-BP1Thr37/46 (p4E-BP1 Thr37/46), and inhibition of mTORC2 activity was measured by the reduction of phosphorylated AKTSer473 (pAKT S473).
PC3 cells (prostate tumor cell-line that contains a mutation in the tumor suppressor PTEN, that promotes the phosphorylation and activation of AKT and 4E-BP1) were used in the immunofluorescence assay. PC3 cells were seeded on 384 well plates (black clear bottom, Matrix #4332) overnight. PC3 cells were then treated with 40 μl of the serially diluted test compounds (in 5% fetal bovine serum, F12 medium containing 0.25% DMSO) for ninety minutes at 37° C. The test compound solution was removed, and the plates were washed gently two times with 25 μl phosphate buffered saline (PBS). The cells were fixed by adding 25 μl of Prefer reagent (from Anatech LTD, Cat#414, a glyoxal fixative for fixing proteins within a cell) for sixty minutes followed by three washes with PBS. 5% Goat serum in PBS/0.3% Triton was used to block non-specific binding (60 minutes).
The primary antibodies targeting pAKT S473 and p4E-BP1 Thr37/46 were diluted into PBS/0.3% Triton and incubated with the cells overnight at 4° C. The antibodies targeting pAKTS473 (Cat#4085, Cell signaling) and p4E-BP1 Thr37/46 (Cat#2855, Cell signaling) were used at a 1:100 dilution. Plates were washed three times with PBS/0.1% Tween 20 before adding the secondary antibody at a 1:200 dilution. (goat anti-rabbit containing a fluorescent label, Alexa Fluor 488, Cat#A11008, Invitrogen) in PBS/0.3% Triton for 60 minutes.
Finally, the plates were washed three times with PBS/0.1% Tween 20 and the fluorescent intensity was read using an Analyst HT from Molecular Devices. The fluorescent intensity values from the serially diluted compound treatment group were analyzed using the Xlfit 4 program ([…]) (Formula 205: Y=Bottom+(Top-Bottom)/(1+(IC50/X)^Hillslope) to generate the IC50 value. Where Top is the maximum signal without Compound (+DMSO only) and Bottom represents maximum inhibition. Y is the fluorescence at some compound concentration. The control used to determine the fluorescent intensities for 100% pAKT S473 or 100% phosphorylated p4E-BP1 Thr37/46 were measured from untreated wells that contained only DMSO, instead of test compound.

[2] = system: mTORC2 activity: phosphorylated AKT Ser473 (pAKT S473) in PC3 cells; assay: mTOR target engagement assay, immunofluorescent cell-based, mTORC2 readout; details: Homo sapiens, PC-3, 1.5 h, rated class, 90 min treatment
Summary of the method: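 Read-out is immunofluorescence intensity, normalized to DMSO-only wells and fitted to a sigmoidal Hill equation for IC50. The mTORC1 arm probes phospho-4E-BP1 Thr37/46 and the mTORC2 arm phospho-AKT Ser473.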

human mTOR enzyme, sequence (P42345 1360-2549 limits assumed): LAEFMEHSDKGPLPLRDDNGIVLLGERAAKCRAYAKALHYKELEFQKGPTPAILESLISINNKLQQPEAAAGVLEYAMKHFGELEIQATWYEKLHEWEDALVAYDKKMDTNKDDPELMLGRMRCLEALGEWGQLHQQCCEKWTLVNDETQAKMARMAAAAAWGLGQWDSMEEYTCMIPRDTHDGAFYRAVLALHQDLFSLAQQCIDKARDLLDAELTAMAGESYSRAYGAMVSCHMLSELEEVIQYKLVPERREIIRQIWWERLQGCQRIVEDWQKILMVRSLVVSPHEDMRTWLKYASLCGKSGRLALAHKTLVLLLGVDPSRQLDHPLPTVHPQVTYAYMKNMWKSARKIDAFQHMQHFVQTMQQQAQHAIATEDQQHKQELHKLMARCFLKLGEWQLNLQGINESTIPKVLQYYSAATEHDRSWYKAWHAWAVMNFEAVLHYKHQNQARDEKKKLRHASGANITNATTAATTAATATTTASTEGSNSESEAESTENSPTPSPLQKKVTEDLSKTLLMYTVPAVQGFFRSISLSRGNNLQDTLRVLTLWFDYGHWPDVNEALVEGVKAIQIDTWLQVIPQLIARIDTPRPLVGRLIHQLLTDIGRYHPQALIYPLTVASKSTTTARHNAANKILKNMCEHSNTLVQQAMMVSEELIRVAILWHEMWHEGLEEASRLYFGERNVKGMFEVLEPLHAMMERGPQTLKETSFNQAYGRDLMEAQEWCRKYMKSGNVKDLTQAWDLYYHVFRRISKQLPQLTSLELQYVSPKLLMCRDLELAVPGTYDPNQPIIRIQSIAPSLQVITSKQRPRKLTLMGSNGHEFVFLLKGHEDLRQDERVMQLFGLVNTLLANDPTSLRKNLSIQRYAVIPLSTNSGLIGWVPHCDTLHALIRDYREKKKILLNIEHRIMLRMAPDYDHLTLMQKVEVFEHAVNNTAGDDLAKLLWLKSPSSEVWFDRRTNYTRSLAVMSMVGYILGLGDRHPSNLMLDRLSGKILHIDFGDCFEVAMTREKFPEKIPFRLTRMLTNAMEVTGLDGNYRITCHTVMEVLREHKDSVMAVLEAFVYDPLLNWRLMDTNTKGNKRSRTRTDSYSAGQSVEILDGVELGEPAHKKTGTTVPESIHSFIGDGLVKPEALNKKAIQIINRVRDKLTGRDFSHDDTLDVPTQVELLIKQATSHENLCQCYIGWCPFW

How did the pIC50 (human mTOR enzyme) turn out when COCCO[C@]1(c2nnc(C)o2)CC[C@@H](c2nc3c(-c4cnn(-c5ccccc5)c4)cnn3c(N)c2S(C)(=O)=O)CC1 [Compound 109] was run?
Its pIC50 is 7.00 to 9.00.

What about the pIC50 [1] of the same compound?
The pIC50 was 5.30 to 5.70.

What about the pIC50 [2] of the same compound?
Its pIC50 is 6.00 to 7.00.

With COCCO[C@]1(C(=O)O)CC[C@@H](c2nc3c(-c4ccc(-c5ccccc5)nc4)cnn3c(N)c2Br)CC1 [Compound 64, (1R,4R)-4-(7-amino-6-bromo-3-(6-phenylpyridin-3-yl)pyrazolo[1,5-a]pyrimidin-5-yl)-1-(2-methoxyethoxy)cyclohexanecarboxylic acid] as the compound, how does the pIC50 (human mTOR enzyme) read?
The pIC50 was 7.00 to 9.00.

What about the pIC50 [1] of the same compound?
Its pIC50 is 6.00 to 7.00.

And the pIC50 [2]?
The pIC50 was 6.00 to 7.00.

COCCO[C@]1(C(=O)NOC)CC[C@@H](c2nc3c(-c4ccc(-c5ccccc5)nc4)cnn3c(N)c2S(C)(=O)=O)CC1 [Compound 105, (1R,4R)-4-(7-amino-6-(methylsulfonyl)-3-(6-phenylpyridin-3-yl)pyrazolo[1,5-a]pyrimidin-5-yl)-N-methoxy-1-(2-methoxyethoxy)-cyclohexane-carboxamide] was tested. Which pIC50 (human mTOR enzyme) did it give?
Its pIC50 is 7.00 to 9.00.

What about the pIC50 [1] of the same compound?
Its pIC50 is 6.00 to 7.00.

What about the pIC50 [2] of the same compound?
Its pIC50 is 7.00 to 9.00.

Which results are given for CC(=O)c1c(N)n2ncc(-c3ccc(-c4ccccc4)nc3)c2nc1[C@H]1CC[C@@](O)(CS(C)(=O)=O)CC1 [Compound 161, 1-(7-amino-5-((1R,4R)-4-hydroxy-4-(methylsulfonylmethyl)cyclohexyl)-3-(6-phenylpyridin-3-yl)pyrazolo[1,5-a]pyrimidin-6-yl)ethanone]?
pIC50 (human mTOR enzyme): 7.00 to 9.00; pIC50 [1]: 6.00 to 7.00; pIC50 [2]: 6.00 to 7.00

COCCO[C@]1(C(=O)O)CC[C@@H](c2nc3c(-c4ccc(-c5ccccn5)nc4)cnn3c(N)c2S(C)(=O)=O)CC1 [Compound 50, (1R,4R)-4-(3-(2,2′-bipyridin-5-yl)-7-amino-6-(methylsulfonyl)-pyrazolo[1,5-a]-pyrimidin-5-yl)-1-(2-methoxyethoxy)-cyclohexanecarboxylic acid] was tested. Which pIC50 (human mTOR enzyme) did it give?
Its pIC50 is 7.00 to 9.00.

What about the pIC50 [1] of the same compound?
The pIC50 was 6.00 to 7.00.

What about the pIC50 [2] of the same compound?
The pIC50 was 6.00 to 7.00.

CC(=O)c1c(N)n2ncc(-c3ccc(-c4ccccc4)nc3)c2nc1[C@H]1CC[C@@](O)(CO)CC1 [Compound 139, 1-(7-amino-5-((1R,4R)-4-hydroxy-4-(hydroxymethyl)cyclohexyl)-3-(6-phenylpyridin-3-yl)pyrazolo[1,5-a]pyrimidin-6-yl)ethanone] was tested. Which pIC50 (human mTOR enzyme) did it give?
The pIC50 was 7.00 to 9.00.

And the pIC50 [1]?
Its pIC50 is 6.00 to 7.00.

And the pIC50 [2]?
The pIC50 was 6.00 to 7.00.

With CO[C@]1(C(=O)O)CC[C@H](c2nc3c(-c4ccc(-c5ccccc5)nc4)cnn3c(N)c2Br)CC1 [Compound 28, (1S,4S)-4-(7-amino-6-bromo-3-(6-phenylpyridin-3-yl)pyrazolo[1,5-a]pyrimidin-5-yl)-1-methoxycyclohexanecarboxylic acid] as the compound, how does the pIC50 (human mTOR enzyme) read?
Its pIC50 is 7.00 to 9.00.

What about the pIC50 [1] of the same compound?
The pIC50 was 6.00 to 7.00.

What about the pIC50 [2] of the same compound?
Its pIC50 is 7.00 to 9.00.

With COCCO[C@]1(C(=O)c2nnc[nH]2)CC[C@@H](c2cc(N)n3ncc(-c4ccc(-c5ccccc5)nc4)c3n2)CC1 [Compound 126, ((1R,4R)-4-(7-amino-3-(6-phenylpyridin-3-yl)pyrazolo[1,5-a]pyrimidin-5-yl)-1-(2-methoxyethoxy)cyclohexyl)(4H-1,2,4-triazol-3-yl)methanone] as the compound, how does the pIC50 (human mTOR enzyme) read?
Its pIC50 is 7.00 to 9.00.

And the pIC50 [1]?
Its pIC50 is 5.70 to 6.00.

And the pIC50 [2]?
The pIC50 was 6.00 to 7.00.

With CO[C@]1(C(=O)O)CC[C@@H](c2nc3c(-c4ccc(-c5ccccc5)nc4)cnn3c(N)c2Br)CC1 [Compound 29, (1R,4R)-4-(7-amino-6-bromo-3-(6-phenylpyridin-3-yl)pyrazolo[1,5-a]pyrimidin-5-yl)-1-methoxycyclohexane-carboxylic acid] as the compound, how does the pIC50 (human mTOR enzyme) read?
The pIC50 was 7.00 to 9.00.

What about the pIC50 [1] of the same compound?
The pIC50 was 6.00 to 7.00.

And the pIC50 [2]?
Its pIC50 is 6.00 to 7.00.

With CC(=O)c1c(C2CCC(O)(CNS(C)(=O)=O)CC2)nc2c(-c3ccc(-c4ccccc4)nc3)cnn2c1N (stereo not drawn) [Compound 160, N-((4-(6-acetyl-7-amino-3-(6-phenylpyridin-3-yl)pyrazolo[1,5-a]pyrimidin-5-yl)-1-hydroxycyclohexyl)methyl)methanesulfonamide] as the compound, how does the pIC50 (human mTOR enzyme) read?
Its pIC50 is 7.00 to 9.00.

And the pIC50 [1]?
Its pIC50 is 6.00 to 7.00.

And the pIC50 [2]?
The pIC50 was 6.00 to 7.00.

What does the source list for CC(=O)c1c(N)n2ncc(-c3ccc(-c4ccccc4)nc3)c2nc1[C@H]1CC[C@](O)(CS(C)(=O)=O)CC1 [Compound 162, 1-(7-amino-5-((1S,4S)-4-hydroxy-4-(methylsulfonylmethyl)cyclohexyl)-3-(6-phenylpyridin-3-yl)pyrazolo[1,5-a]pyrimidin-6-yl)ethanone]?
pIC50 (human mTOR enzyme): 7.00 to 9.00; pIC50 [1]: 6.00 to 7.00; pIC50 [2]: 7.00 to 9.00

With COCCO[C@]1(C(=O)CO)CC[C@@H](c2nc3c(-c4cnn(-c5ccccc5)c4)cnn3c(N)c2S(C)(=O)=O)CC1 [Compound 129, 1-((1R,4R)-4-(7-amino-6-(methylsulfonyl)-3-(1-phenyl-1H-pyrazol-4-yl)pyrazolo[1,5-a]pyrimidin-5-yl)-1-(2-methoxyethoxy)cyclohexyl)-2-hydroxyethanone] as the compound, how does the pIC50 (human mTOR enzyme) read?
Its pIC50 is 7.00 to 9.00.

What about the pIC50 [1] of the same compound?
The pIC50 was 6.00 to 7.00.

And the pIC50 [2]?
The pIC50 was 7.00 to 9.00.

With COCCO[C@]1(C(=O)NO)CC[C@@H](c2nc3c(-c4ccc(-c5ccccc5)nc4)cnn3c(N)c2C(C)=O)CC1 [Compound 102, (1R,4R)-4-(6-acetyl-7-amino-3-(6-phenylpyridin-3-yl)pyrazolo[1,5-a]pyrimidin-5-yl)-N-hydroxy-1-(2-methoxyethoxy)-cyclohexane-carboxamide] as the compound, how does the pIC50 (human mTOR enzyme) read?
Its pIC50 is 7.00 to 9.00.

And the pIC50 [1]?
The pIC50 was 6.00 to 7.00.

And the pIC50 [2]?
The pIC50 was 6.00 to 7.00.

COCCO[C@]1(C(=O)O)CC[C@@H](c2nc3c(-c4cnc5ccc(F)cc5c4)cnn3c(N)c2S(C)(=O)=O)CC1 [Compound 52, (1R,4R)-4-(7-amino-3-(6-fluoroquinolin-3-yl)-6-(methylsulfonyl)-pyrazolo[1,5-a]-pyrimidin-5-yl)-1-(2-methoxyethoxy)-cyclohexanecarboxylic acid] was tested. Which pIC50 (human mTOR enzyme) did it give?
Its pIC50 is 7.00 to 9.00.

And the pIC50 [1]?
Its pIC50 is 6.00 to 7.00.

What about the pIC50 [2] of the same compound?
The pIC50 was 6.00 to 7.00.

What does the source list for COCCO[C@]1(C(=O)O)CC[C@@H](c2nc3c(-c4ccc(-c5ccc(O)c(F)c5)nc4)cnn3c(N)c2S(C)(=O)=O)CC1 [Compound 48, (1R,4R)-4-(7-amino-3-(6-(3-fluoro-4-hydroxyphenyl)pyridin-3-yl)-6-(methylsulfonyl)-pyrazolo[1,5-a]-pyrimidin-5-yl)-1-(2-methoxyethoxy)-cyclohexanecarboxylic acid]?
pIC50 (human mTOR enzyme): 7.00 to 9.00; pIC50 [1]: 4.82 to 5.30; pIC50 [2]: 4.82 to 5.30

How did the pIC50 (human mTOR enzyme) turn out when COCCO[C@]1(c2nnc[nH]2)CC[C@@H](c2nc3c(-c4cnn(-c5ccccc5)c4)cnn3c(N)c2S(C)(=O)=O)CC1 [Compound 127, 5-((1R,4R)-4-(2-methoxyethoxy)-4-(4H-1,2,4-triazol-3-yl)cyclohexyl)-6-(methylsulfonyl)-3-(1-phenyl-1H-pyrazol-4-yl)pyrazolo[1,5-a]pyrimidin-7-amine] was run?
Its pIC50 is 7.00 to 9.00.

And the pIC50 [1]?
The pIC50 was 6.00 to 7.00.

What about the pIC50 [2] of the same compound?
The pIC50 was 6.00 to 7.00.

What does the source list for COCCO[C@]1(C(=O)O)CC[C@@H](c2nc3c(-c4ccc(-c5ccc(OC)c(F)c5)nc4)cnn3c(N)c2Br)CC1 [Compound 68, (1R,4R)-4-(7-amino-6-bromo-3-(6-(3-fluoro-4-methoxyphenyl)-pyridin-3-yl)-pyrazolo[1,5-a]pyrimidin-5-yl)-1-(2-methoxyethoxy) cyclohexanecarboxylic acid]?
pIC50 (human mTOR enzyme): 7.00 to 9.00; pIC50 [1]: 5.30 to 5.70; pIC50 [2]: 5.30 to 5.70

How did the pIC50 (human mTOR enzyme) turn out when COCCO[C@]1(C(=O)O)CC[C@@H](c2nc3c(-c4cnn(-c5ccc(F)cc5)c4)cnn3c(N)c2S(C)(=O)=O)CC1 [Compound 43, (1R,4R)-4-(7-amino-3-(1-(4-fluorophenyl)-1H-pyrazol-4-yl)-6-(methylsulfonyl)-pyrazolo[1,5-a]-pyrimidin-5-yl)-1-(2-methoxyethoxy)-cyclohexanecarboxylic acid] was run?
The pIC50 was 7.00 to 9.00.

And the pIC50 [1]?
The pIC50 was 6.00 to 7.00.

What about the pIC50 [2] of the same compound?
The pIC50 was 6.00 to 7.00.
